# Measurements from patent publication US20230322735A1, “AZETIDINYL TRYPTAMINES AND METHODS OF TREATING PSYCHIATRIC DISORDERS” (priority 2020, published 2023).
# Key:
# [1] = Stability in rat brain homogenate
# human 5-HT2C receptor = biological target: T1, human 5-HT2C receptor (Homo sapiens, UniProt P28335); assay: cell-based; details: Ca2+ flux, agonist mode
# T1 sequence (P28335 33-458): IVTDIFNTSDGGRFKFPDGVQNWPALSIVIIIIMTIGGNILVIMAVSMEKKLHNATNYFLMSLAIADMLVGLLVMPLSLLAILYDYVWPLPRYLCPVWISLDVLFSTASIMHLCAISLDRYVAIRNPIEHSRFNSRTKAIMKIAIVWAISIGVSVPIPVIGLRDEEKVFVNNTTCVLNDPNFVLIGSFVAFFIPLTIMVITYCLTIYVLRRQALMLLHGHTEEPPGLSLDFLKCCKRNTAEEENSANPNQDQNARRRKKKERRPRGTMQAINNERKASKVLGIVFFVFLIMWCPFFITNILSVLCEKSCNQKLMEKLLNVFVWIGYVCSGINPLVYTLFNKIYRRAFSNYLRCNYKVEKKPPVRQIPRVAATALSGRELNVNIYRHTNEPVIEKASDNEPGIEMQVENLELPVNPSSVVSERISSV
# 5-HT1A receptor = biological target: T2, 5-HT1A receptor (Homo sapiens, UniProt P08908); assay: FLIPR Ca2+ flux agonist assay at 5-HT1A (CHO cells); assay type: cell-based
# T2 construct: host or cells: CHO cells
# T2 sequence (P08908 1-422): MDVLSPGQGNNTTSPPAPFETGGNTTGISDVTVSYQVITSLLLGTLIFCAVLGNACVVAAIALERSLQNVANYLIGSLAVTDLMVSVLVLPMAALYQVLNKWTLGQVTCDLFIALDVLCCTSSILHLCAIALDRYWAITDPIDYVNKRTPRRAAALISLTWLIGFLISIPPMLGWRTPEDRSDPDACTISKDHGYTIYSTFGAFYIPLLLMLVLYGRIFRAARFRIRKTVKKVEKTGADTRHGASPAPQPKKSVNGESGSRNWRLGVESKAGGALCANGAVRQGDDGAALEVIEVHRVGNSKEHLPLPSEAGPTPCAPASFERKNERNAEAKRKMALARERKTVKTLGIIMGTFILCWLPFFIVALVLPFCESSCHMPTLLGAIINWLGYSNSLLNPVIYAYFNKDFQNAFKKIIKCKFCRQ
# Protocol: A solution of 250 mM probenecid in 1 mL FLIPR assay buffer was prepared fresh. This was combined with a fluorescent dye (Fluo-4 Direct™) to make a final assay concentration of 2.5 mM. […] The fluorescent dye was then added to the assay plate along with assay buffer to a final volume of 40 μL. The cell plate was incubated for 50 min at 37° C. and 5% CO2 and placed into the FLIPR Tetra along with the compound plate. 10 μL of references and compounds were then transferred from the compound plate into the cell plate and the fluorescent signal was read.
# [2] = Stability in mouse brain homogenate
# [3] = Metabolic stability in human liver microsomes (HLM)
# [4] = Chemical stability of the product on storage and analysis; assay type: physicochemical
# Protocol: Note: The product 2 is unstable and should be stored frozen, protected from light, and under inert gas. If stored properly, stability has been confirmed by qNMR for at least 1 month.
# A mixture of 3-(2-(azetidin-1-yl)ethyl)-1H-indol-4-ol (2, 50 mg, 231.18 μmol, 1 eq) and pyridine (23.77 mg, 300.54 μmol, 24.26 μL, 1.3 eq) in DCM (1 mL) was cooled to 0° C. Then acetic anhydride (25.96 mg, 254.30 μmol, 23.82 μL, 1.1 eq) was added dropwise at 0° C. and the resulting mixture was stirred at 25° C. for 1 h. At this time, the solvent was removed and the residue was purified by prep-HPLC (column=Waters Xbridge BEH C18 (100*30 mm, 10 μm); mobile phase=water(NH4HCO3)-ACN, B %=5%-40%; 10 min run time) to provide 3-(2-(azetidin-1-yl)ethyl)-1H-indol-4-yl acetate (4) as a white solid (20 mg, 33% yield). ^1H NMR (400 MHz, DMSO-d6) δ 11.01 (br s, 1H), 7.22 (d, J=8.0 Hz, 1H), 7.11 (d, J=1.6 Hz, 1H), 7.02 (t, J=8.0 Hz, 1H), 6.64 (d, J=7.6 Hz, 1H), 3.09 (t, J=6.8 Hz, 4H), 2.57-2.54 (m, 4H), 2.32 (s, 3H), 1.96-1.90 (m, 2H); LCMS (RT=0.983 min, MS calc.: 258.14, [M+H]+=259.1).
# [5] = both, human, pooled human liver microsomes, pH 7.4
smiles,measurement,setting,value
"Oc1cccc2[nH]cc(CCN3CCC3)c12 [Compound 2, 3-(2-(azetidin-1-yl)ethyl)-1H-indol-4-ol]",stability in rat brain homogenate (in words),[1],good stability
same,half-life at 1 μM,"[1]; male, Sprague Dawley, rat, rat brain homogenate",2.91 h
same,% Compound Remaining (after 120 min),"[1]; rat brain homogenate (male Sprague Dawley), 1 μM, 37° C., 120 min",56.8%
same,5-HT2C % Act @ Max Dose,human 5-HT2C receptor,48.4%
same,EC50,human 5-HT2C receptor,279 nM
same,EC50,5-HT1A receptor,1030 nM
same,5-HT1A % Act @ Max Dose,"5-HT1A receptor; Ca2+ flux, agonist mode, CHO cells",102%
same,stability in mouse brain homogenate (in words),[2],good stability
same,half-life at 1 μM,"[2]; male, CD-1, mouse, mouse brain homogenate",> 4.82 h
same,% Compound Remaining (after 120 min),"[2]; mouse brain homogenate (male CD-1), 1 μM, 37° C., 120 min",74.2%
same,half-life at 1 μM,[3]; [5],> 2.42 h
same,microsomal CLint at 1 μM,[3]; [5],< 9.6 µL/min/mg
same,metabolic stability in HLM compared with dimethyl counterpart,"[3]; vs DMT, psilocin, 5-MeO-DMT respectively",greater metabolic stability
same,stability of the product (in words),[4]; storage,unstable
same,time for which stability was confirmed by qNMR,"[4]; stored frozen, protected from light, under inert gas",at least 1 month
